Data taken from ChEMBL document CHEMBL4196007, “Design, synthesis and biological evaluation of novel 4-aminoquinazolines as dual target inhibitors of EGFR-PI3Kα” (Eur J Med Chem, 2018).
Active and inactive are the calls of the source. The rule behind the calls is not given here.

Key:
[1] = tested on: BT-549; test: Inhibition of colony formation in human BT549 cells after 2 weeks by crystal violet staining-based assay; assay type: functional, cell-based
[2] = tested on: SNU-638; test: Cytotoxicity against human SNU638 cells after 72 hrs by SRB assay; assay type: functional, cell-based; details: SNU-638, 72 h
[3] = tested on: BT-549; test: Cytotoxicity against human BT549 cells after 72 hrs by SRB assay; assay type: functional, cell-based; details: BT-549, 72 h
[4] = biological target: T1, Phosphatidylinositol 4,5-bisphosphate 3-kinase catalytic subunit delta isoform (Homo sapiens, UniProt O00329); test: Inhibition of PI3K p110delta (unknown origin) using PIP2 as substrate by ELISA
T1 sequence (O00329 whole entry): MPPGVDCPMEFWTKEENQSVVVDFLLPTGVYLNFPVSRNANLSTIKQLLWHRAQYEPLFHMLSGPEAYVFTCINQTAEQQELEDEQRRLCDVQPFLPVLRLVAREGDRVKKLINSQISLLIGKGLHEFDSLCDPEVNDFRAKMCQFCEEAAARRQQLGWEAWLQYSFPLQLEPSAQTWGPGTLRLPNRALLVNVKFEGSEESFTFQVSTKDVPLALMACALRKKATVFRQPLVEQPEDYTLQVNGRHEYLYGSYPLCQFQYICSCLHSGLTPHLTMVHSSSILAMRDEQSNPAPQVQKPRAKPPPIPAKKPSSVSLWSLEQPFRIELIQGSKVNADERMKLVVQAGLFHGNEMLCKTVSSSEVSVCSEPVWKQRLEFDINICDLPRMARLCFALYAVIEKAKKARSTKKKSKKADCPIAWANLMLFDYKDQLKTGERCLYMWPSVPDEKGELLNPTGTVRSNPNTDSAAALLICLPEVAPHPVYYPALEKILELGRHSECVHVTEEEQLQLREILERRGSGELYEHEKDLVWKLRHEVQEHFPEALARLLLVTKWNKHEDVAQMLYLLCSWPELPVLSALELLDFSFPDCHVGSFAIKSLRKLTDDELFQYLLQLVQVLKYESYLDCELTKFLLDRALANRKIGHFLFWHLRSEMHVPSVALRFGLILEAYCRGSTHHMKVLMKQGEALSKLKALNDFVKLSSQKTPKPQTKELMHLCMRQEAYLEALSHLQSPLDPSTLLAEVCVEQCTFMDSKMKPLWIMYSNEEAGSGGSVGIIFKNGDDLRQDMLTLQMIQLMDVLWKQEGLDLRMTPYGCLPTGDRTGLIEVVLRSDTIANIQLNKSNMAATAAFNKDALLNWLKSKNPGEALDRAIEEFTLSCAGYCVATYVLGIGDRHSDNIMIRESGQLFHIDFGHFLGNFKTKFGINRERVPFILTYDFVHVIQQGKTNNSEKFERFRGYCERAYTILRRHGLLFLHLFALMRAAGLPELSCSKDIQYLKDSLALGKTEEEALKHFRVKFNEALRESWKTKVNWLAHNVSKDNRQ

[5] = tested on: SK-HEP1; test: Cytotoxicity against human SKHEP1 cells after 72 hrs by SRB assay; assay type: functional, cell-based; details: SK-HEP1, 72 h
[6] = biological target: Phosphatidylinositol 4,5-bisphosphate 3-kinase catalytic subunit beta isoform (Homo sapiens, UniProt P42338); test: Inhibition of PI3K p110beta (unknown origin) using PIP2 as substrate by ELISA
Sequence of Phosphatidylinositol 4,5-bisphosphate 3-kinase catalytic subunit beta isoform (P42338 whole entry, canonical isoform): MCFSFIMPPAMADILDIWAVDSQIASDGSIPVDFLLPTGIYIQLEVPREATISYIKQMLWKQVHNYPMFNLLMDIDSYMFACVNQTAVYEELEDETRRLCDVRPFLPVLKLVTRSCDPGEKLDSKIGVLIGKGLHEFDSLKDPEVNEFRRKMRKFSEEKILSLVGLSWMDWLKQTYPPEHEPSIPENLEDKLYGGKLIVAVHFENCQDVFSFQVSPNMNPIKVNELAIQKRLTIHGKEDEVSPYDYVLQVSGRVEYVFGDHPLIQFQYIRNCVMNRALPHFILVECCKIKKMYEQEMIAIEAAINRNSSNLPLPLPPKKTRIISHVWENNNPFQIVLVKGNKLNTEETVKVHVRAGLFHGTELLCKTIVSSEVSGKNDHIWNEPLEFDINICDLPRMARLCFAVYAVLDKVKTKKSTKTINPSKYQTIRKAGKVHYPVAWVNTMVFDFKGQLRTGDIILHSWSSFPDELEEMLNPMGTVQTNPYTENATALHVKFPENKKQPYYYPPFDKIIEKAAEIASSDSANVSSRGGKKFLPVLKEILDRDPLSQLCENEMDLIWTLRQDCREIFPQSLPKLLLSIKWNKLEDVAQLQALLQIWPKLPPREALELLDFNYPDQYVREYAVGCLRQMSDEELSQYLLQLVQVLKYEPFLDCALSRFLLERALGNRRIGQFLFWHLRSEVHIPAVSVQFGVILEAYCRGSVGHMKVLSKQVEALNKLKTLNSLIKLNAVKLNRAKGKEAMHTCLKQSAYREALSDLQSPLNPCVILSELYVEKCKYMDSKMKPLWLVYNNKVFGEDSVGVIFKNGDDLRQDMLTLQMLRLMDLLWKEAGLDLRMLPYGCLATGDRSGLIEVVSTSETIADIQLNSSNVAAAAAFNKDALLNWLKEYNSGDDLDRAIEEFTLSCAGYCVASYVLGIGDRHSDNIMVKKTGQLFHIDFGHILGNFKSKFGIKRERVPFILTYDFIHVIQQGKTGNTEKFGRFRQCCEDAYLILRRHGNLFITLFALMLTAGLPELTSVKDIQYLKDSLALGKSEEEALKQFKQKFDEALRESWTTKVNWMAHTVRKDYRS

[7] = tested on: BT-549; test: Induction of apoptosis in human BT549 cells assessed as late apoptotic cells at 1 uM by Annexin V-FITC/propidium iodide staining-based flow cytometric analysis relative to control; assay type: functional
[8] = tested on: A549; test: Cytotoxicity against human A549 cells after 72 hrs by SRB assay; assay type: functional, cell-based; details: A549, 72 h
[9] = tested on: BT-549; test: Cell cycle arrest in human BT549 cells assessed as accumulation of cells at G2 phase at 5 uM after 24 hrs by propidium iodide staining-based flow cytometric analysis (reference value: 18.96%); assay type: functional
[10] = tested on: BT-549; test: Cell cycle arrest in human BT549 cells assessed as accumulation of cells at G2 phase at 2.5 uM after 24 hrs by propidium iodide staining-based flow cytometric analysis (reference value: 18.96%); assay type: functional
[11] = tested on: BT-549; test: Cell cycle arrest in human BT549 cells assessed as accumulation of cells at G1 phase at 1 uM after 24 hrs by propidium iodide staining-based flow cytometric analysis (reference value: 55.93%); assay type: functional
[12] = tested on: BT-549; test: Cell cycle arrest in human BT549 cells assessed as accumulation of cells at S phase at 2.5 uM after 24 hrs by propidium iodide staining-based flow cytometric analysis (reference value: 25.10%); assay type: functional
[13] = tested on: BT-549; test: Induction of apoptosis in human BT549 cells assessed as chromatin condensation at 1 to 5 uM after 24 hrs by DAPI staining-based fluorescence microscopic analysis; assay type: functional, cell-based
[14] = biological target: Phosphatidylinositol 4,5-bisphosphate 3-kinase catalytic subunit gamma isoform (Homo sapiens, UniProt P48736); test: Inhibition of PI3K p110gamma (unknown origin) using PIP2 as substrate by ELISA
Sequence of Phosphatidylinositol 4,5-bisphosphate 3-kinase catalytic subunit gamma isoform (P48736 whole entry, canonical isoform): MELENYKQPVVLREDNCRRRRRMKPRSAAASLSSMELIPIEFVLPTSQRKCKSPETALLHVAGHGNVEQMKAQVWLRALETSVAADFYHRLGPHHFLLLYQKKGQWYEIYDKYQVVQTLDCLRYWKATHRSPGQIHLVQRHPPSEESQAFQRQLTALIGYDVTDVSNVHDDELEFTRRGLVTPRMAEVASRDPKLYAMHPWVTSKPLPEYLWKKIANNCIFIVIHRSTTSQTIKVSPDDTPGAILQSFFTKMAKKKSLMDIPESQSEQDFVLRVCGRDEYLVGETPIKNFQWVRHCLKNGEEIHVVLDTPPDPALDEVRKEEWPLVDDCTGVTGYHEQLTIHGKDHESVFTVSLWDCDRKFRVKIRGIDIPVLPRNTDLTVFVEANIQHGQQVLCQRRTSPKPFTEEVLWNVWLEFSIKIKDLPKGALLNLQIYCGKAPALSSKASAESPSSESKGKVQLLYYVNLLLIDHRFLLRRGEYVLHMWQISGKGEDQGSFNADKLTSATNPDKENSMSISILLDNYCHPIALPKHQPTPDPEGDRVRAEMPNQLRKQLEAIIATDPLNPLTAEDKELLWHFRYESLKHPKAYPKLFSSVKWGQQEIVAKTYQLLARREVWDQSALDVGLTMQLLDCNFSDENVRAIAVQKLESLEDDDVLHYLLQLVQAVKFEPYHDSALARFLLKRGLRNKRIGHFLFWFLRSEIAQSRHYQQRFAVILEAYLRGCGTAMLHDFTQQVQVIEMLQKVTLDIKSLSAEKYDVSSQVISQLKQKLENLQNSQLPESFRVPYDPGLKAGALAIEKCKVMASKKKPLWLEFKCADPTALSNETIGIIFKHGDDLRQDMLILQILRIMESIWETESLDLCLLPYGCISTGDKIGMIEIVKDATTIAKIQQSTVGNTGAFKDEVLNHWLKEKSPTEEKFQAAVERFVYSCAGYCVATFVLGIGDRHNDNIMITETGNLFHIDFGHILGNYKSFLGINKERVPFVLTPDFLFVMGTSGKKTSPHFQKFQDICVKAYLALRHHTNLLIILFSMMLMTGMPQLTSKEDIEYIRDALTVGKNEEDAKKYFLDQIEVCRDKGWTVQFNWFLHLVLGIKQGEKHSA

[15] = biological target: Phosphatidylinositol 4,5-bisphosphate 3-kinase catalytic subunit alpha isoform (Homo sapiens, UniProt P42336); test: Inhibition of PI3K p110alpha (unknown origin) using PIP2 as substrate by ELISA
Sequence of Phosphatidylinositol 4,5-bisphosphate 3-kinase catalytic subunit alpha isoform (P42336 whole entry, canonical isoform): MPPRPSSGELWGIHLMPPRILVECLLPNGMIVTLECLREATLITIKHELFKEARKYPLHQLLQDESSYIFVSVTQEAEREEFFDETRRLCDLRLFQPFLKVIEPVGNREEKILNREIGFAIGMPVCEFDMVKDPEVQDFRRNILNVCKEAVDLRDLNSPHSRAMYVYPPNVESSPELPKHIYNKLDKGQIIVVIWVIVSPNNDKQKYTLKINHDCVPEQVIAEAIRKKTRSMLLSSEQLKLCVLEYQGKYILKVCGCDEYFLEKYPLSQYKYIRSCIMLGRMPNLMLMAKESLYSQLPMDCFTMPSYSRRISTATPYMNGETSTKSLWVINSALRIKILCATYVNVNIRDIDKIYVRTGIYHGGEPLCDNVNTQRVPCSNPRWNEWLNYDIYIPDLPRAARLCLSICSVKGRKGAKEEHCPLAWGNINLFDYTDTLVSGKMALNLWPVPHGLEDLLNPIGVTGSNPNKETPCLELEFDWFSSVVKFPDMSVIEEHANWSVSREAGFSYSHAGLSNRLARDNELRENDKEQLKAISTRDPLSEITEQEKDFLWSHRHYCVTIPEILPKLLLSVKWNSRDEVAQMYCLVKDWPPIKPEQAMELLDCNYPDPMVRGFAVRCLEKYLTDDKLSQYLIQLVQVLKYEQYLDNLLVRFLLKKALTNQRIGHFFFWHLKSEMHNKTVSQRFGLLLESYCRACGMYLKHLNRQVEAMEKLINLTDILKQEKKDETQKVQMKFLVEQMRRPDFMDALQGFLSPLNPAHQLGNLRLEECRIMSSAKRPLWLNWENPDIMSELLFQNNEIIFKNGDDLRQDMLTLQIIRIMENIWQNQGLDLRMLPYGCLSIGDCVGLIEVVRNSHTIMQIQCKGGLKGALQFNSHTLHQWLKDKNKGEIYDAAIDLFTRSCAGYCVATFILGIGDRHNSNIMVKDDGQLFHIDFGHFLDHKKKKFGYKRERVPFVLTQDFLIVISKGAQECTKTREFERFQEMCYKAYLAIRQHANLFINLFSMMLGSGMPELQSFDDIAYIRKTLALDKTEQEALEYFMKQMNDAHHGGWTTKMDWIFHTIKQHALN

[16] = tested on: BT-549; test: Cell cycle arrest in human BT549 cells assessed as accumulation of cells at G2 phase at 1 uM after 24 hrs by propidium iodide staining-based flow cytometric analysis (reference value: 18.96%); assay type: functional
[17] = tested on: HCT-116; test: Cytotoxicity against human HCT116 cells after 72 hrs by SRB assay; assay type: functional, cell-based; details: HCT-116, 72 h
[18] = tested on: BT-549; test: Inhibition of colony formation in human BT549 cells assessed as colony formation rate at 2.5 uM after 2 weeks by crystal violet staining-based assay relative to control; assay type: functional; design: scale not given: the % may be the effect or the level left
[19] = tested on: BT-549; test: Cell cycle arrest in human BT549 cells assessed as accumulation of cells at G1 phase after 24 hrs by propidium iodide staining-based flow cytometric analysis; assay type: functional
[20] = tested on: BT-549; test: Cell cycle arrest in human BT549 cells assessed as accumulation of cells at S phase at 5 uM after 24 hrs by propidium iodide staining-based flow cytometric analysis (reference value: 25.10%); assay type: functional
[21] = tested on: BT-549; test: Induction of apoptosis in human BT549 cells assessed as early apoptotic cells at 2.5 uM by Annexin V-FITC/propidium iodide staining-based flow cytometric analysis relative to control; assay type: functional
[22] = tested on: BT-549; test: Induction of apoptosis in human BT549 cells assessed as early apoptotic cells at 1 uM by Annexin V-FITC/propidium iodide staining-based flow cytometric analysis relative to control; assay type: functional
[23] = tested on: BT-549; test: Induction of apoptosis in human BT549 cells assessed as early apoptotic cells at 5 uM by Annexin V-FITC/propidium iodide staining-based flow cytometric analysis relative to control; assay type: functional
[24] = tested on: BT-549; test: Cell cycle arrest in human BT549 cells assessed as accumulation of cells at G1 phase at 5 uM after 24 hrs by propidium iodide staining-based flow cytometric analysis (reference value: 55.93%); assay type: functional
[25] = tested on: BT-549; test: Inhibition of colony formation in human BT549 cells assessed as colony formation rate at 5 uM after 2 weeks by crystal violet staining-based assay relative to control; assay type: functional; design: scale not given: the % may be the effect or the level left
[26] = tested on: BT-549; test: Cell cycle arrest in human BT549 cells assessed as accumulation of cells at G1 phase at 2.5 uM after 24 hrs by propidium iodide staining-based flow cytometric analysis (reference value: 55.93%); assay type: functional
[27] = tested on: BT-549; test: Induction of apoptosis in human BT549 cells assessed as nuclear fragmentation at 1 to 5 uM after 24 hrs by DAPI staining-based fluorescence microscopic analysis; assay type: functional, cell-based
[28] = tested on: BT-549; test: Cell cycle arrest in human BT549 cells assessed as accumulation of cells at S phase at 1 uM after 24 hrs by propidium iodide staining-based flow cytometric analysis (reference value: 25.10%); assay type: functional
[29] = tested on: BT-549; test: Induction of apoptosis in human BT549 cells assessed as late apoptotic cells at 5 uM by Annexin V-FITC/propidium iodide staining-based flow cytometric analysis relative to control; assay type: functional
[30] = tested on: MCF7; test: Cytotoxicity against human MCF7 cells after 72 hrs by SRB assay; assay type: functional, cell-based; details: MCF7, 72 h
[31] = species on record: Homo sapiens; test: Inhibition of PI3K in human BT549 cells assessed as decrease in Akt phosphorylation at Ser473 by Western blot analysis; assay type: cell-based
[32] = tested on: BT-549; test: Induction of apoptosis in human BT549 cells assessed as late apoptotic cells at 2.5 uM by Annexin V-FITC/propidium iodide staining-based flow cytometric analysis relative to control; assay type: functional

## CCS(=O)(=O)Nc1cc(-c2ccc3ncnc(Nc4ccc(F)c(Cl)c4)c3c2)cnc1OC
[1]
  inhibition: Dose-dependent effect
[2]
  IC50: 4.1 µM
[3]
  IC50: 1.02 µM
[4]
  IC50: 8.67 µM
[5]
  IC50: 6.1 µM
[6]
  IC50: 9.41 µM
[7]
  Activity: 1.79%
[8]
  IC50: 8.23 µM
[9]
  Activity: 18.37%
[10]
  Activity: 17.77%
[11]
  Activity: 69.31%
[12]
  Activity: 6.86%
[13]
  Activity: Active
[14]
  IC50: 3.56 µM
[15]
  IC50: 0.317 µM
[16]
  Activity: 24.16%
[17]
  IC50: 5.6 µM
[18]
  Activity: 55.6%
[19]
  Activity: Dose-dependent effect
[20]
  Activity: 0.92%
[21]
  Activity: 56.69%
[22]
  Activity: 30.52%
[23]
  Activity: 54.71%
[24]
  Activity: 80.7%
[25]
  Activity: 25.7%
[26]
  Activity: 75.36%
[27]
  Activity: Active
[28]
  Activity: 6.52%
[29]
  Activity: 2.27%
[30]
  IC50: 5.59 µM
[31]
  inhibition: Dose-dependent effect
[32]
  Activity: 2.05%
